Data on four compounds can be found in ChEMBL document CHEMBL2169878 (J Med Chem, 2012).

Molecules are shown by their SMILES.

Data set [1] deals with Chloroquine resistance transporter (Plasmodium falciparum, UniProt Q9N623). Briefly: Inhibition of chloroquine-resistant Plasmodium falciparum Dd2 CRT expressed in Xenopus laevis oocyte assessed as inhibition of [3H]chloroquine uptake measured from 1 to 2 hrs.
Data set [2] relates to Plasmodium falciparum. Briefly: Antiplasmodial activity against chloroquine-resistant Plasmodium falciparum W2 infected in human RBC after 72 hrs by parasite lactate dehydrogenase assay. The data set is classed as functional, organism-based. The conditions noted are these: W2, 72 h.
Data set [3] concerns Plasmodium falciparum. Briefly: Resistance ratio of IC50 for chloroquine-resistant Plasmodium falciparum K1 to IC50 for chloroquine-sensitive Plasmodium falciparum NF54. The data set is classed as functional.
In data set [4] the test system is Plasmodium falciparum. Kind of data set: Antiplasmodial activity against chloroquine-resistant Plasmodium falciparum K1 infected in human erythrocytes assessed as inhibition of [3H]hypoxanthine incorporation incubated for 48 hrs prior to [3H]hypoxanthine addition measured after 48 hrs by liquid scintillation counting. The data set is classed as functional, organism-based.

Data set [5] concerns Plasmodium falciparum. Kind of data set: Antiplasmodial activity against chloroquine-sensitive Plasmodium falciparum NF54 infected in human erythrocytes assessed as inhibition of [3H]hypoxanthine incorporation incubated for 48 hrs prior to [3H]hypoxanthine addition measured after 48 hrs by liquid scintillation counting. The data set is classed as functional, organism-based.

Data set [6] has as its system Plasmodium falciparum. Briefly: Antiplasmodial activity against chloroquine-sensitive Plasmodium falciparum D10 infected in human RBC after 72 hrs by parasite lactate dehydrogenase assay. It counts as functional, organism-based. The conditions noted are these: D10, 72 h.
The test system of data set [7] is Plasmodium falciparum. Kind of data set: Resistance ratio of IC50 for chloroquine-resistant Plasmodium falciparum W2 to IC50 for chloroquine-sensitive Plasmodium falciparum D10. It counts as functional.
Data set [8] has as its target T1, Chloroquine resistance transporter (Plasmodium falciparum) (UniProt Q9N623).
T1 sequence (whole entry): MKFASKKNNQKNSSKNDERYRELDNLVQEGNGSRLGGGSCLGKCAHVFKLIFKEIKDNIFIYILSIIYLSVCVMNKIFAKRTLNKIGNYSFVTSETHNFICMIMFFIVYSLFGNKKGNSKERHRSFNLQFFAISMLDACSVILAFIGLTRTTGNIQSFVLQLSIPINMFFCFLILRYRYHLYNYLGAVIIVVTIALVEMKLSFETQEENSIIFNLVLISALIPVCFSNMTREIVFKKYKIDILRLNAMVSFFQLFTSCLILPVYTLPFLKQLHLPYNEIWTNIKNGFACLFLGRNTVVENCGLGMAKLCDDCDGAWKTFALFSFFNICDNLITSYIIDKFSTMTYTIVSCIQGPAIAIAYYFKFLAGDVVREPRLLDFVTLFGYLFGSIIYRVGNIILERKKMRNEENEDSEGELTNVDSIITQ
Kind of data set: Inhibition of chloroquine-resistant Plasmodium falciparum Dd2 CRT expressed in Xenopus laevis oocyte assessed as inhibition of [3H]chloroquine uptake at 100 uM measured from 1 to 2 hrs.

Data set [9] has as its system Salmonella typhimurium. Kind of data set: Mutagenicity against Salmonella typhimurium TA98 assessed as revertants at 3 uM incubated for 90 mins followed by drug washout measured after 2 days relative to positive control. The data set is classed as toxicity, organism-based. The conditions noted are these: salmonella enterica subsp. enterica serovar typhimurium, 1.5 h.

For data set [10], the system named is Salmonella typhimurium. Briefly: Mutagenicity against Salmonella typhimurium TA100 assessed as revertants at 12 uM incubated for 90 mins followed by drug washout measured after 2 days relative to positive control. The data set is classed as toxicity, organism-based. The conditions noted are these: salmonella enterica subsp. enterica serovar typhimurium.
Data set [11] deals with Salmonella typhimurium. Kind of data set: Mutagenicity against Salmonella typhimurium TA100 assessed as revertants at 1.5 uM incubated for 90 mins followed by drug washout measured after 2 days relative to positive control. It counts as toxicity, organism-based. The conditions noted are these: salmonella enterica subsp. enterica serovar typhimurium, 1.5 h.
Data set [12] has as its system Salmonella typhimurium. Kind of data set: Mutagenicity against Salmonella typhimurium TA98 assessed as revertants at 12 uM incubated for 90 mins followed by drug washout measured after 2 days relative to positive control. The conditions noted are these: salmonella enterica subsp. enterica serovar typhimurium. The data set is classed as toxicity, organism-based.
Data set [13] in a line: Cytotoxicity against human HepG2 cells after 24 hrs by neutral red dye uptake assay. It counts as cell-based. The conditions noted are these: read-out: TC50.
A short description of data set [14]: Cytotoxicity against mouse NIH3T3 cells after 24 hrs by neutral red dye uptake assay. The conditions noted are these: read-out: TC50. The data set is classed as cell-based.
Data set [15] relates to Salmonella typhimurium. Briefly: Mutagenicity against Salmonella typhimurium TA98 assessed as revertants at 48 uM incubated for 90 mins followed by drug washout measured after 2 days relative to positive control. The data set is classed as toxicity, organism-based. The conditions noted are these: salmonella enterica subsp. enterica serovar typhimurium, 1.5 h.
Data set [16] relates to Salmonella typhimurium. Briefly: Mutagenicity against Salmonella typhimurium TA100 assessed as revertants at 3 uM incubated for 90 mins followed by drug washout measured after 2 days relative to positive control. The data set is classed as toxicity, organism-based. The conditions noted are these: salmonella enterica subsp. enterica serovar typhimurium, 1.5 h.
The subject of data set [17] is Salmonella typhimurium. Briefly: Mutagenicity against Salmonella typhimurium TA100 assessed as revertants at 6 uM incubated for 90 mins followed by drug washout measured after 2 days relative to positive control. It counts as toxicity, organism-based. The conditions noted are these: salmonella enterica subsp. enterica serovar typhimurium, 1.5 h.
Data set [18] concerns Salmonella typhimurium. Briefly: Mutagenicity against Salmonella typhimurium TA98 assessed as revertants at 6 uM incubated for 90 mins followed by drug washout measured after 2 days relative to positive control. It counts as toxicity, organism-based. The conditions noted are these: salmonella enterica subsp. enterica serovar typhimurium, 1.5 h.
Data set [19] has as its system Salmonella typhimurium. Briefly: Mutagenicity against Salmonella typhimurium TA98 assessed as revertants at 1.5 uM incubated for 90 mins followed by drug washout measured after 2 days relative to positive control. It counts as toxicity, organism-based. The conditions noted are these: salmonella enterica subsp. enterica serovar typhimurium, 1.5 h.
For data set [20], the system named is Salmonella typhimurium. Kind of data set: Mutagenicity against Salmonella typhimurium TA98 assessed as revertants at 24 uM incubated for 90 mins followed by drug washout measured after 2 days relative to positive control. The data set is classed as toxicity, organism-based. The conditions noted are these: salmonella enterica subsp. enterica serovar typhimurium, 1.5 h.

For data set [21], the system named is Salmonella typhimurium. Kind of data set: Mutagenicity against Salmonella typhimurium TA100 assessed as revertants at 24 uM incubated for 90 mins followed by drug washout measured after 2 days relative to positive control. It counts as toxicity, organism-based. The conditions noted are these: salmonella enterica subsp. enterica serovar typhimurium.
Data set [22] concerns Salmonella typhimurium. Briefly: Mutagenicity against Salmonella typhimurium TA100 assessed as revertants at 48 uM incubated for 90 mins followed by drug washout measured after 2 days relative to positive control. It counts as toxicity, organism-based. The conditions noted are these: salmonella enterica subsp. enterica serovar typhimurium.

In general, IC50 refers to the midpoint of a concentration-inhibition curve. Consider `CC(C)(C)NC(=O)[C@@H]1C[C@@H]2CCCC[C@@H]2CN1C[C@@H](O)[C@H](Cc1ccccc1)NC(=O)[C@H](CC(N)=O)NC(=O)c1ccc2ccccc2n1`, for which the half-inhibitory concentration (IC50) in data set [1] was 13 µM.

In the case of `Clc1ccc(C(Nc2ccnc3cc(Cl)ccc23)c2ccc(CN3CCN(Cc4ccc(C(Nc5ccnc6cc(Cl)ccc56)c5ccc(Cl)cc5)cc4)CC3)cc2)cc1` (racemic), the IC50 in the data set with Plasmodium falciparum [2] came to 98 nM; in the data set with Plasmodium falciparum [4], 56 nM; with Plasmodium falciparum [5], 89 nM; in the data set on Plasmodium falciparum [6] it was 190 nM. The entries for the “Ratio IC50” value in the data set on Plasmodium falciparum [3] and in the data set on Plasmodium falciparum [7] were 0.6 and 0.5, respectively.

As a reminder, the inhibition is how much of the control response was suppressed. Consider `Clc1ccc(C(Nc2ccnc3cc(Cl)ccc23)c2ccc(CN3CCCC3)cc2)cc1` (racemic), for which the inhibition in data set [8] came out at 70%. Besides, the “Ratio IC50” value in the data set on Plasmodium falciparum [3] was 1.1; with Plasmodium falciparum [7] it was 1.6.

`COc1ccc2nccc(NC(c3cccc(Cl)c3)c3ccc(CN4CCCC4)c(Cl)c3)c2c1` (racemic): the Activity in the data set with Salmonella typhimurium [9] is 0%; in the data set on Salmonella typhimurium [10] it was 4%; in the data set with Salmonella typhimurium [11], 3%; in the data set on Salmonella typhimurium [12] it was 3%; in the data set with Salmonella typhimurium [15], 3%; in the data set with Salmonella typhimurium [16] it was 4%. Further, the Activity with Salmonella typhimurium [17] is 4%; with Salmonella typhimurium [18] it was 0%; with Salmonella typhimurium [19], 3%; in the data set with Salmonella typhimurium [20], 3%; with Salmonella typhimurium [21], 5%; in the data set on Salmonella typhimurium [22], 10%. Moreover, the half-inhibitory concentration (IC50) in the data set on Plasmodium falciparum [2] amounted to 90 nM; in the data set with Plasmodium falciparum [4], 34 nM; in the data set on Plasmodium falciparum [5] it was 27 nM; in the data set with Plasmodium falciparum [6], 56 nM. In addition, the CC50 at 24 h is 12 µM in data set [13] and 24 µM in data set [14].
